Where a SMILES comes first, the peptide text is derived from it. Bridges are numbered along the chain shown (N, C = ends).
What was measured:
[1] = Motilin immunoreactivity concentration in plasma, half-life after intravenous administration (Example 8); details: SD, rat, in vivo, 10 nmol/kg
Protocol: The experiment was carried out using rats into which polyethylene tube (PE-50 manufactured by Clay Adams) was inserted into thigh artery under an anesthetized condition with Nembutal. As to a test system, male SD strain rats (Nippon Charles River) of 7 weeks age were used where one group comprised 3 rats. Human motilin or a derivative thereof in a dose of 10 nmol/kg was administered into tail vein of the rat and the blood before the administration and until 60 minutes after the administration was periodically collected by a polyethylene tube inserted into the thigh artery. To the collected blood were added EDTA (manufactured by Dojin Laboratories) and aprotinin (manufactured by Bayer) as a stabilizer and an anti-coagulant, respectively and the plasma was separated therefrom by centrifugal separation. Motilin immunoreactivity concentration in plasma was measured by a competitive radioimmunoassay (RIA) (FIG. 8). At that time, a rabbit polyclonal antibody (#870623) which specifically recognizes the amino acid numbers 1 to 12 of native motilin shown by SEQ ID No: 102 was used as an antibody and, as a labeled compound, ^125I-[Tyr^7] human motilin was used.

in vivo = details: rat; for AUC(0-inf) / C0 / half-life / Cmax / Tmax: male, SD, 0.1 mg/kg
Protocol: Changes in ANP immunoreactivity concentration in plasma when a native ANP and a chimeric peptide (chimeric ANP) to which a half-life-extension peptide was bestowed were administered into vein of rats were investigated.
As a test system, male rats of an SD strain of 7 weeks age (provided from Nippon Charles River) were subjected to the experiment where one group comprised three rats. […] At that time, a rabbit polyclonal antibody (#8) recognizing a ring part of ANP was used as an antibody and ^125I-[Tyr^28] α-hANP was used as a labeling compound.
Pharmacokinetic parameters were calculated from the resulting changes in immunoreactivity concentrations in plasma. At that time, WinNonlin Professional Ver. 4.0.1 (manufactured by Pharsight Corporation, U.S.A.) was used as the analytical software. Method for the calculation of each parameter is mentioned as follows.
Concentration at time 0 (C0; extrapolated value, ng/mL), area under the curve for concentration in plasma vs. time (AUC; ng.min/mL) and quenching half-life (T½; minute(s)) were calculated as follows. C0 was calculated as a value at time by means of extrapolation from the changes in immunoreactivity concentration in plasma at each blood collection period. AUC was calculated by a trapezoidal method using the immunoreactivity concentrations in plasma at all measuring points (t) and an extrapolated value until the infinitive time was determined. T½ was calculated by means of a least-squares method from the inclination of a straight line connecting several points in a disappearing phase of the immunoreactivity concentration in plasma. In the case of a subcutaneous administration, C0 was not determined but the maximum concentration in plasma (Cmax; ng/mL) and the time reaching the maximum concentration in plasma (Tmax; min) were determined.

Structure (SMILES)	half-life ([1]; intravenous, male rats, N = 3, read-out: T½ Mean Value) [min]	half-life ([1]; male, iv) [min]	AUC(0-inf) (in vivo; iv) [ng·h/mL]	C0 (in vivo; iv) [ng/mL]	half-life (in vivo; iv) [min]	AUC(0-inf) (in vivo; sc) [ng·h/mL]	Cmax (in vivo; sc) [ng/mL]	Tmax (in vivo; sc) [min]	half-life (in vivo; sc) [min]	concentration in plasma as compared with the native ANP (in vivo; iv)	concentration in plasma as compared with the native ANP (in vivo; sc)
CC[C@H](C)[C@H](NC(=O)[C@@H]1CCCN1C(=O)[C@@H](NC(=O)[C@@H](N)Cc1ccccc1)C(C)C)C(=O)N[C@@H](Cc1ccccc1)C(=O)N[C@H](C(=O)N[C@@H](Cc1ccc(O)cc1)C(=O)NCC(=O)N[C@@H](CCC(=O)O)C(=O)N[C@@H](CC(C)C)C(=O)N[C@@H](CCC(N)=O)C(=O)N[C@@H](CCCNC(=N)N)C(=O)N[C@H](C(=O)N[C@@H](CCC(N)=O)C(=O)N[C@@H](CCC(N)=O)C(=O)N[C@@H](CCCCN)C(=O)N[C@@H](CCCNC(=N)N)C(=O)N[C@@H](CC(=O)O)C(=O)N[C@@H](CO)C(=O)N[C@@H](CCCNC(=N)N)C(=O)N[C@@H](CCCNC(=N)N)C(=O)N1CCC[C@H]1C(=O)N1CCC[C@H]1C(=O)N[C@@H](C)C(=O)N[C@@H](CCCCN)C(=O)N[C@@H](CC(C)C)C(=O)N[C@@H](CCC(N)=O)C(=O)N1CCC[C@H]1C(=O)N[C@@H](CCCNC(=N)N)C(=O)O)C(C)C)[C@@H](C)O [Chimeric motilin (X)(MG-17E/D)] (H-FVPIFTYGELQRVQQKRDSRRPPAKLQPR-OH)	7.89										
CC[C@H](C)[C@H](NC(=O)[C@@H]1CCCN1C(=O)[C@@H](NC(=O)[C@@H](N)Cc1ccccc1)C(C)C)C(=O)N[C@@H](Cc1ccccc1)C(=O)N[C@H](C(=O)N[C@@H](Cc1ccc(O)cc1)C(=O)NCC(=O)N[C@@H](CCC(=O)O)C(=O)N[C@@H](CC(C)C)C(=O)N[C@@H](CCC(N)=O)C(=O)N[C@@H](CCCNC(=N)N)C(=O)N[C@H](C(=O)N[C@@H](CCC(N)=O)C(=O)N[C@@H](CCC(N)=O)C(=O)N[C@@H](CCCNC(=N)N)C(=O)N[C@@H](CCCCN)C(=O)N[C@@H](CCCCN)C(=O)N[C@@H](CCCCN)C(=O)N1CCC[C@H]1C(=O)N1CCC[C@H]1C(=O)N[C@@H](C)C(=O)N[C@@H](CCCCN)C(=O)N[C@@H](CC(C)C)C(=O)N[C@@H](CCC(N)=O)C(=O)N1CCC[C@H]1C(=O)N[C@@H](CCCNC(=N)N)C(=O)O)C(C)C)[C@@H](C)O [Chimeric motilin (W)(MG-dES)] (H-FVPIFTYGELQRVQQRKKKPPAKLQPR-OH; N-terminus and C-terminus assumed)		5.39									
CC[C@H](C)[C@@H]1NC(=O)[C@H](CCCNC(=N)N)NC(=O)[C@H](CC(=O)O)NC(=O)[C@H](CCSC)NC(=O)[C@H](CCCNC(=N)N)NC(=O)CNC(=O)CNC(=O)[C@H](Cc2ccccc2)NC(=O)[C@@H](NC(=O)[C@H](CCCNC(=N)N)NC(=O)[C@@H]2CCCN2C(=O)[C@H](CCC(N)=O)NC(=O)[C@H](CC(C)C)NC(=O)[C@H](CCCCN)NC(=O)[C@H](C)NC(=O)[C@@H]2CCCN2C(=O)[C@@H]2CCCN2C(=O)[C@H](CCCCN)NC(=O)[C@H](CCCCN)NC(=O)[C@H](CO)NC(=O)[C@H](CCC(=O)O)NC(=O)[C@H](CCCCN)NC(=O)[C@H](CCCNC(=N)N)NC(=O)[C@H](CCC(N)=O)NC(=O)[C@H](CCC(N)=O)NC(=O)[C@@H](N)C(C)C)CSSC[C@@H](C(=O)N[C@@H](CC(N)=O)C(=O)N[C@@H](CO)C(=O)N[C@@H](Cc2ccccc2)C(=O)N[C@@H](CCCNC(=N)N)C(=O)N[C@@H](Cc2ccc(O)cc2)C(=O)O)NC(=O)CNC(=O)[C@H](CC(C)C)NC(=O)CNC(=O)[C@H](CO)NC(=O)[C@H](CCC(N)=O)NC(=O)[C@H](C)NC(=O)CNC1=O [Chimeric ANP (B)] (H-VQQRKESKKPPAKLQPRCFGGRMDRIGAQSGLGCNSFRY-OH; disulfide 18-34; N-terminus and C-terminus assumed)			175	1570 ± 361	40 ± 12.4	66.4	64.5 ± 40.7	16.7	57.3 ± 7.1	rising concentration in plasma	rising concentration in plasma
CC[C@H](C)[C@@H]1NC(=O)[C@H](CCCNC(=N)N)NC(=O)[C@H](CC(=O)O)NC(=O)[C@H](CCSC)NC(=O)[C@H](CCCNC(=N)N)NC(=O)CNC(=O)CNC(=O)[C@H](Cc2ccccc2)NC(=O)[C@@H](NC(=O)[C@H](CO)NC(=O)[C@H](CO)NC(=O)[C@H](CCCNC(=N)N)NC(=O)[C@H](CCCNC(=N)N)NC(=O)[C@H](CC(C)C)NC(=O)[C@@H](N)CO)CSSC[C@@H](C(=O)N[C@@H](CC(N)=O)C(=O)N[C@@H](CO)C(=O)N[C@@H](Cc2ccccc2)C(=O)N[C@@H](CCCNC(=N)N)C(=O)N[C@@H](Cc2ccc(O)cc2)C(=O)O)NC(=O)CNC(=O)[C@H](CC(C)C)NC(=O)CNC(=O)[C@H](CO)NC(=O)[C@H](CCC(N)=O)NC(=O)[C@H](C)NC(=O)CNC1=O [Native ANP, reference compound]			25	993 ± 208		8.92	22.3 ± 5.3	8.3			
CC[C@H](C)[C@@H]1NC(=O)[C@H](CCCNC(=N)N)NC(=O)[C@H](CC(=O)O)NC(=O)[C@H](CCSC)NC(=O)[C@H](CCCNC(=N)N)NC(=O)CNC(=O)CNC(=O)[C@H](Cc2ccccc2)NC(=O)[C@@H](N)CSSC[C@@H](C(=O)N[C@@H](CC(N)=O)C(=O)N[C@@H](CO)C(=O)N[C@@H](Cc2ccccc2)C(=O)N[C@@H](CCCNC(=N)N)C(=O)N[C@@H](Cc2ccc(O)cc2)C(=O)N[C@H](C(=O)N[C@@H](CCC(N)=O)C(=O)N[C@@H](CCC(N)=O)C(=O)N[C@@H](CCCNC(=N)N)C(=O)N[C@@H](CCCCN)C(=O)N[C@@H](CCC(=O)O)C(=O)N[C@@H](CO)C(=O)N[C@@H](CCCCN)C(=O)N[C@@H](CCCCN)C(=O)N2CCC[C@H]2C(=O)N2CCC[C@H]2C(=O)N[C@@H](C)C(=O)N[C@@H](CCCCN)C(=O)N[C@@H](CC(C)C)C(=O)N[C@@H](CCC(N)=O)C(=O)N2CCC[C@H]2C(=O)N[C@@H](CCCNC(=N)N)C(=O)O)C(C)C)NC(=O)CNC(=O)[C@H](CC(C)C)NC(=O)CNC(=O)[C@H](CO)NC(=O)[C@H](CCC(N)=O)NC(=O)[C@H](C)NC(=O)CNC1=O [Chimeric ANP (A)] (H-CFGGRMDRIGAQSGLGCNSFRYVQQRKESKKPPAKLQPR-OH; disulfide 1-17; N-terminus and C-terminus assumed)			196	1240 ± 71	24 ± 2.5	34	63.3 ± 31.8	5	46.4 ± 8	rising concentration in plasma	rising concentration in plasma
CC[C@H](C)[C@@H]1NC(=O)[C@H](CCCNC(=N)N)NC(=O)[C@H](CC(=O)O)NC(=O)[C@H](CCSC)NC(=O)[C@H](CCCNC(=N)N)NC(=O)CNC(=O)CNC(=O)[C@H](Cc2ccccc2)NC(=O)[C@@H](NC(=O)[C@@H](NC(=O)[C@H](CCC(N)=O)NC(=O)[C@H](CCC(N)=O)NC(=O)[C@H](CCCNC(=N)N)NC(=O)[C@H](CCCCN)NC(=O)[C@H](CCC(=O)O)NC(=O)[C@H](CO)NC(=O)[C@H](CCCCN)NC(=O)[C@H](CCCCN)NC(=O)[C@@H]2CCCN2C(=O)[C@@H]2CCCN2C(=O)[C@H](C)NC(=O)[C@H](CCCCN)NC(=O)[C@H](CC(C)C)NC(=O)[C@H](CCC(N)=O)NC(=O)[C@@H]2CCCN2C(=O)[C@@H](N)CCCNC(=N)N)C(C)C)CSSC[C@@H](C(=O)N[C@@H](CC(N)=O)C(=O)N[C@@H](CO)C(=O)N[C@@H](Cc2ccccc2)C(=O)N[C@@H](CCCNC(=N)N)C(=O)N[C@@H](Cc2ccc(O)cc2)C(=O)O)NC(=O)CNC(=O)[C@H](CC(C)C)NC(=O)CNC(=O)[C@H](CO)NC(=O)[C@H](CCC(N)=O)NC(=O)[C@H](C)NC(=O)CNC1=O [Chimeric ANP (C)] (H-RPQLKAPPKKSEKRQQVCFGGRMDRIGAQSGLGCNSFRY-OH; disulfide 18-34; N-terminus and C-terminus assumed)			148	1530 ± 442	27.2 ± 3.8	56.7	55.1 ± 10.3	20	37.8 ± 7.8	rising concentration in plasma	rising concentration in plasma

Reference: patent US8551937B2, “Peptide having an extending action for half-life of object peptide in plasma” (priority 2008, dated 2013)
